Entries after “also recorded” stand apart in the source; their conditions may differ.
Key:
[1] = test system: apocrine sweat glands in the axilla; assay: Topical application to the axilla, body odour; type: in vivo
Description: (§1) Not only in theory but also in practice the compounds of the present invention and in particular 4-OHT and its related analogous compounds are the ideal anabolic substances. […] This can be deduced from three different topical applications to the skin.
The majority of glands relevant for body odor are situated in the subcutaneous tissue. It is therefore difficult to apply effective substances directly. To this end a substance is preferably included facilitating the penetration into the skin.

5α-reductase [2] = assay: Reduction by 5α-reductase
striae = assay: Topical treatment of striae; type: in vivo; conditions: suitable formulation containing 4-OHT
Description: Striae have also been treated according to the invention with a suitable formulation containing 4-OHT. […] Whereas striae rubrae are more disturbing on a fair skin striae albae are a considerable problem for dark skin.

hair follicles = assay: Topical treatment of body skin areas, hair growth; type: in vivo
Description: The situation in the body regions other than the scalp however is different. Sometimes hair growing excessively on other parts of the body is a nuisance. They are conventionally removed by depilation or epilation. Hot wax epilation restores the growth of hair in many dorming hair follicles (telogen hair) thereby increasing the frequency and painfulness of hot wax epilation. Pubic and axillary hair is sparse or absent in CAIS. Corresponding cell cultures contain as androgen predominantly testosterone and only traces of DHT. Growth of unwanted hair in the corresponding body regions cannot be prevented by blocking of 5α-reductase. According to the present invention, this is possible by blocking the androgen receptor against DHT. In almost all hair follicles (with the exception of scalp, pubic and axillary hair) specific cells of the dermal papilla are driven by DHT to promote hair growth.

5α-reductase [3] = assay: 5α-reductase inhibition; type: biochemical
Description: According to the present invention, the use may correspondingly be determined by selecting the C-19 steroid compound having the aforementioned effects or properties (iii) to (vi) alone or in combination. These effects or properties (iii) to (vi) can be measured by correspondingly known methods. For example, 5α-reductase activity can be measured by a method described by Mitamura et al., Analytical Sciences 21, 1241-1244 (2005). The use according to the present invention may be further determined by a suitable administrated amount of the compound, and by an appropriate application condition, such as type of user/patient, or type of target site or organ enabling the aforementioned effects or properties (iii) to (vi) alone or in combination.

sebaceous glands = assay: Topical application to the face and other acne-prone skin areas; type: in vivo
Description: as §1

[4] = test system: skin over the predilection areas of cellulite; assay: Topical treatment of the skin over the predilection areas of cellulite; type: in vivo
Description: The border between the two layers is made up of collagen fibres. Strengthening this border by increasing its collagen content by stimulating the fibroblasts to produce more collagen leads to a marked improvement of the appearance of cellulite.

aromatase = molecular target: T1, aromatase (Homo sapiens, UniProt P11511); assay: Aromatization by aromatase
T1 sequence (P11511 1-503): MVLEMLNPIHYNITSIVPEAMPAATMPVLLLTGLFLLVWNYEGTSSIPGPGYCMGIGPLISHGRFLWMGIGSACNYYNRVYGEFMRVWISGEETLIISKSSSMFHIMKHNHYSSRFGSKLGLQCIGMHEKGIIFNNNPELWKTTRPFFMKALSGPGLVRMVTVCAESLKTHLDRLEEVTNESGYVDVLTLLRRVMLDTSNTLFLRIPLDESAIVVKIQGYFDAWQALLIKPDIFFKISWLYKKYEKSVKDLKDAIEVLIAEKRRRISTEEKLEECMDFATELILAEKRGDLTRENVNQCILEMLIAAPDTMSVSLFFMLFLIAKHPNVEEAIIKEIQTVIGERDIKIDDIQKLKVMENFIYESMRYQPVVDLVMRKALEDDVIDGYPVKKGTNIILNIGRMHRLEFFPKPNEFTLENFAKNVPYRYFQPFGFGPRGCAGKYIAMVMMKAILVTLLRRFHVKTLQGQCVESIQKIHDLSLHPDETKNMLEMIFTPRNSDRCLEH

androgen receptor (AR) = assay: Binding affinity to the androgen receptor against DHT as reference compound
Method: The compounds used according to the present invention preferably have a binding affinity to the androgen receptor (AR) higher than DHT; more preferably the binding affinity is high by having affinity specific to AR in a range of IC50≧500 nM, preferably IC50≧100 nM and more preferably IC50≧50 nM, wherein IC50 is defined as the concentration of the compound required to reduce specific binding of a reference compound, 5α-dihydrotestosterone (DHT), by 50%. The IC50-values can be determined by known methods using radioactively labelled DHT as reference compound, for example by a standard dextran-coated charcoal adsorption method as described by Raynaud et al., J. Steroid Biochem. 6, 615-622 (1975), using 1 nM reference concentrations of radiolabeled [^3H]-DHT, or by similar IC50 determination methods described in the literature. Because the concentration of AR in the target cell is very low, typically in the nanomolar range approximately, differences in binding constants to the order contemplated in the present invention are significant.

[5] = loaded to solid lipid nanoparticles; cited from earlier work
forehead skin = conditions: applied to the forehead skin of patients with acne, 1% solution; cited from earlier work

SMILES	effect on body odor of the combination with a penetration enhancer ([1]; combination with dimethyl isosorbide (Arlasolve DMI))	androgen dependent production of volatile fatty acids responsible for body odour ([1]; topical, axilla)	5α-reduction (5α-reductase [2])	striae rubrae and striae albae (striae)	thickness of the skin (striae)	type of hair produced by the follicles (hair follicles; after six months)	growth of body hairs (hair follicles; body regions other than scalp)	inhibition of 5α-reductase (5α-reductase [3])	size and capability of sebaceous glands (sebaceous glands)	adipose tissue / adipocytes ([4]; topical)	topical formulation compared with 4-OHA ([4]; topical formulation, collagen content of the skin)	solidification of the skin ([4]; topical preparation, within four weeks)	concentration of collagen fibres ([4]; topical, skin areas over the buttocks)	androgenic effect after application to the skin ([4]; topical, hair growth or pimples)	aromatization (aromatase)	binding affinity to the AR compared with DHT (androgen receptor (AR))	increase in CPA absorption by the skin [5]	sebum excretion rate (forehead skin)
C[C@]12CC[C@H]3[C@@H](CCC4=C(O)C(=O)CC[C@@]43C)[C@@H]1CC[C@@H]2O [4-OHT, 4,17β-dihydroxyandrost-4-en-3-one]	Optimal results	immediately prevents the androgen dependent production of volatile fatty acids	escapes aromatization or 5α-reduction	makes them disappear	increasing thickness of the skin	most of the follicles are producing solely vellous hair	grow slower and less dense and in addition thinner and blonder	able to inhibit this enzyme (probably both isoforms)	reduces size and capability of sebaceous glands	marked diminution and shrinkage of the adipocytes; also recorded: shrinkage of adipose tissue	superior than 4-OHA	considerable solidification of the skin	anabolically increases the concentration of collagen fibres	no androgenic effect whatsoever could be observed	escapes aromatization or 5α-reduction	higher affinity to the AR than DHT	–	–
CC(=O)O[C@]1(C(C)=O)CC[C@H]2[C@@H]3C=C(Cl)C4=CC(=O)[C@@H]5C[C@@H]5[C@]4(C)[C@H]3CC[C@@]21C [Cyproterone acetate, cyproterone acetate]	–	–	–	–	–	–	–	–	–	–	–	–	–	–	–	–	2-3 fold	not able to reduce the sebum excretion rate
